# Measurements as given in US20240025849A1 (MAX DELBRÜCK-CENTRUM FÜR MOLEKULARE MEDIZIN IN DER …, priority 2020, published 2024).
# Where two headings read alike, the source gives them in different places.
# Columns and labels:
# [1] = test system: primary cultured neonatal microglia; assay: LPS induced NO release, Griess assay, laboratory scaled setup; assay type: cell-based, mouse; conditions: for IC50: Mus musculus, Microglia;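 as to active: compounds at or above the IC50 cutoff were called inactive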
# Experimental: Primary cultured neonatal microglia. For preparation of cultured neonatal microglia, P0-P3 mice were used. 10 brains were extracted, meninges and cerebellum were removed and put on ice with Hank's balanced salt solution (HBSS). The dissected brains were washed 3 times before adding 400 μL trypsin (0.1 mg/L) and DNAse (5 μg/L) in phosphate buffered saline (PBS). After 2 min of incubation with this solution, the reaction was blocked by adding plain medium. After removal of the medium, 1 mg DNAse was added and the cells were mechanically dissociated, with a Pasteur pipette followed by a glass pipette. The cells were centrifuged for 10 min at 129 g at 4° C. The supernatant was discarded. The pellet was resuspended in plain medium and plated (2.5 brains/flask) in Poly-L-Lysine coated flasks. The cells were washed after 2 days with PBS and incubated for another 7 days in plain medium. Afterwards the medium was replaced by plain medium with 33% L929 conditioned medium. After 2 days, cells were harvested by shaking them for 30 min at 150 rpm. The supernatant was centrifuged for 10 min at 129 g at 4° C. The cells were plated into a 96 well plate (100 000 cells/well, 200 μL medium per well). This procedure could be repeated 2 times with a 2 day interval.
# Griess assay. Cells were seeded according to the protocols described above, after compounds and stimuli were added, 100 μl of supernatant was transferred into a new 96 well plate and 100 μl freshly mixed Griess reagent were added. Griess reagent was composed of reagent A (100 mg Naphthylethylene in 50 ml aqua dest.) and reagent B (1 g Sulfanilamide, […] H3PO4 (85%) in 44 mL aqua dest.) mixed 1:1. The solution was carefully mixed and the absorbance was determined in a microplate reader at a wavelength of 550 nm.
# Dissolved sodium nitrite in plain medium served as a standard. Total amount of nitrite was calculated by a linear regression of the standard curve.
# The activity of the compounds listed in column 1 of Table 1 as inhibitors of NO production was compared in murine primary cultured neonatal microglia as described above.
# nNOS = assay: NOS enzyme activity assay (Eurofins), nNOS; assay type: biochemical; conditions: C1: 1 nM and 1 μM; 30 min reaction
# Experimental: (§1) In mammalians NO is produced by the three isoforms of NOS: iNOS, eNOS, and nNOS. To evaluate the direct influence of cl on the different isoforms of NOS, an enzyme activity assay was conducted by Eurofins. C1 was mixed with the enzyme buffer, which included co-factors and substrates and by adding the enzyme the reaction was initiated. After 30 min the reaction was stopped, and NO concentration was measured. The results are normalised to positive control performed without any additional compounds and are presented as percentage in inhibition. […] To test the compounds effect on iNOS a concentration range from […] 5 μM were applied ([…], 1, 10, 100 nM, 1, and 5 μM), and for testing eNOS and nNOS 1 nM and 1 μM were applied.
# iNOS = assay: NOS enzyme activity assay (Eurofins), iNOS; assay type: biochemical; conditions: C1: 1 μM up to 5 μM as printed; 30 min reaction
# Experimental: as §1
# [2] = inhibitors of NO production, murine primary cultured neonatal microglia, read-out: IC50
# [3] = inhibitors of NO production, murine primary cultured neonatal microglia, read-out: activity class (IC50)
# [4] = inhibitors of NO production, murine primary cultured neonatal microglia
# [5] = inhibitors of NO production, murine primary cultured neonatal microglia, read-out: active
SMILES,"IC50 [1, 3]","IC50 [1, 5]","active [1, 4]",further results
"COc1ccc(NC(=O)[C@@H](NC(=O)[C@@H]2CCCN2C(=O)OC(C)(C)C)c2ccc(OC)cc2)cc1 [Compound 28, tert-butyl (S)-2-(((S)-1-(4-methoxyphenyl)-2-((4-methoxyphenyl)amino)-2-oxoethyl)carbamoyl)pyrrolidine-1-carboxylate]",< 10 µM,–,YES,"IC50 [1, 2]: 3.3 µM"
"COc1ccc(NC(=O)[C@@H](NC(=O)[C@@H]2CCCN2C(=O)OCc2ccccc2)c2ccc(OCCOCCOCCOCCOCCOCCNC(=O)CCCC[C@@H]3SC[C@@H]4NC(=O)N[C@@H]43)cc2)cc1 [Compound 29, benzyl (S)-2-(((S)-2-((4-methoxyphenyl)amino)-2-oxo-1-(4-((19-oxo-23-((3aS,4S,6aR)-2-oxohexahydro-1H-thieno[3,4-d]imidazol-4-yl)-3,6,9,12,15-pentaoxa-18-azatricosyl)oxy)phenyl)ethyl)carbamoyl)pyrrolidine-1-carboxylate]",< 10 µM,–,YES,"IC50 [1, 2]: 2.36 µM"
"COc1ccc(NC(=O)[C@@H](NC(=O)[C@@H]2Cc3ccccc3CN2C(=O)OCc2ccccc2)c2ccc(OC)cc2)cc1 [Compound 32, benzyl (S)-3-(((S)-1-(4-methoxyphenyl)-2-((4-methoxyphenyl)amino)-2-oxoethyl)carbamoyl)-3,4-dihydroisoquinoline-2(1H)-carboxylate]",< 10 µM,–,YES,–
"COc1ccc(NC(=O)[C@@H](NC(=O)[C@@H]2CCCN2CCCc2ccccc2)c2ccc(OC)cc2)cc1 [Compound 39, (S)—N—((S)-1-(4-methoxyphenyl)-2-((4-methoxyphenyl)amino)-2-oxoethyl)-1-(3-phenylpropyl)pyrrolidine-2-carboxamide]",–,≥ 10 µM,–,–
COc1ccc(NC(=O)[C@@H](NC(=O)[C@@H]2CCCN2)c2ccc(OC)cc2)cc1 [Compound 44],–,≥ 10 µM,–,–
COc1ccc(NC(=O)[C@@H](NC(=O)[C@@H]2CCCN2C(=O)CCCCCNC(=O)CCCC[C@@H]2SC[C@@H]3NC(=O)N[C@@H]32)c2ccc(OC)cc2)cc1 [Compound 45],–,≥ 10 µM,–,–
COc1ccc(NC(=O)[C@@H](NC(=O)[C@@H]2CCCN2C(C)=O)c2ccc(OC)cc2)cc1 [Compound 47],–,≥ 10 µM,–,–
"COc1ccc(NC(=O)[C@@H](NC(=O)[C@@H]2C[C@@H](O)CN2C(=O)CCC2CCCCC2)c2ccc(OC)cc2)cc1 [Compound 53, (2S,4R)-1-(3-cyclohexylpropanoyl)-4-hydroxy-N—((S)-1-(4-methoxyphenyl)-2-((4-methoxyphenyl)amino)-2-oxoethyl)pyrrolidine-2-carboxamide]",< 1 µM,–,YES,–
"CSC(=N)N [S-Methylisothiourea, reference compound]",–,–,–,enzymatic activity of nNOS (nNOS): reduce the enzyme activity as predicted
"CC(=N)NCc1cccc(CN)c1 [W1400, reference compound]",–,–,–,enzymatic activity of iNOS (iNOS): reduce the enzyme activity as predicted

# Further lines, with some results ahead:
"IC50 [1, 3]","IC50 [1, 5]",SMILES,"active [1, 4]",further results
< 10 µM,–,"COc1ccc([C@H](NC(=O)[C@@H]2CCCN2C(=O)OCc2ccccc2)C(=O)Nc2cnc(C3CC3)nc2)cc1 [Compound 27, benzyl(S)-2-(((S)-2-((2-cyclopropylpyrimidin-5-yl)amino)-1-(4-methoxyphenyl)-2-oxoethyl)carbamoyl)pyrrolidine-1-carboxylate]",YES,"IC50 [1, 2]: 1.91 µM"
< 1 µM,–,"COc1ccc(NC(=O)[C@@H](NC(=O)[C@@H]2CCN2C(=O)OCc2ccccc2)c2ccc(OC)cc2)cc1 [Compound 30, benzyl (S)-2-(((S)-1-(4-methoxyphenyl)-2-((4-methoxyphenyl)amino)-2-oxoethyl)carbamoyl)azetidine-1-carboxylate]",YES,–
< 10 µM,–,"COc1ccc(NC(=O)[C@@H](NC(=O)[C@@H]2C[C@@H]3CCCC[C@@H]3N2C(=O)OCc2ccccc2)c2ccc(OC)cc2)cc1 [Compound 31, benzyl(2S,3aS,7aS)-2-(((S)-1-(4-methoxyphenyl)-2-((4-methoxyphenyl)amino)-2-oxoethyl)carbamoyl)octahydro-1H-indole-1-carboxylate]",YES,–
< 0.2 µM,–,"COc1ccc(NC(=O)[C@@H](NC(=O)[C@]2(C)CCCN2C(=O)OCc2ccccc2)c2ccc(OC)cc2)cc1 [Compound 33, benzyl (S)-2-(((S)-1-(4-methoxyphenyl)-2-((4-methoxyphenyl)amino)-2-oxoethyl)carbamoyl)-2-methylpyrrolidine-1-carboxylate]",YES,–
< 0.2 µM,–,"COc1ccc(NC(=O)[C@@H](NC(=O)[C@@H]2CCCCN2C(=O)OCc2ccccc2)c2ccc(OC)cc2)cc1 [Compound 34, benzyl (S)-2-(((S)-1-(4-methoxyphenyl)-2-((4-methoxyphenyl)amino)-2-oxoethyl)carbamoyl)piperidine-1-carboxylate]",YES,–
–,≥ 10 µM,"COc1ccc([C@H](NC(=O)[C@@H]2CCCN2C(=O)OCc2ccccc2)C(=O)Nc2cnn(C)c2)cc1 [Compound 40, benzyl (S)-2-(((S)-1-(4-methoxyphenyl)-2-((1-methyl-1H-pyrazol-4-yl)amino)-2-oxoethyl)carbamoyl)pyrrolidine-1-carboxylate]",–,–
–,≥ 10 µM,"COc1ccc([C@H](NC(=O)[C@@H]2CCCN2C(=O)OCc2ccccc2)C(=O)Nc2cccc3c2ccn3C)cc1 [Compound 41, benzyl (S)-2-(((S)-1-(4-methoxyphenyl)-2-((1-methyl-1H-indol-4-yl)amino)-2-oxoethyl)carbamoyl)pyrrolidine-1-carboxylate]",–,–
–,≥ 10 µM,"COc1ccc([C@H](NC(=O)[C@@H]2CCCN2C(=O)OCc2ccccc2)C(=O)Nc2ccc3c(c2)n(C)c(=O)n3C)cc1 [Compound 42, benzyl (S)-2-(((S)-2-((1,3-dimethyl-2-oxo-2,3-dihydro-1H-benzo[d]imidazol-5-yl)amino)-1-(4-methoxyphenyl)-2-oxoethyl)carbamoyl)pyrrolidine-1-carboxylate]",–,–
–,≥ 10 µM,"COc1ccc([C@H](NC(=O)[C@@H]2CCCN2C(=O)OCc2ccccc2)C(=O)Nc2ccccc2)cc1 [Compound 43, benzyl (S)-2-(((S)-1-(4-methoxyphenyl)-2-oxo-2-(phenylamino)ethyl)carbamoyl)pyrrolidine-1-carboxylate]",–,–
–,≥ 10 µM,COc1ccc([C@H](NC(=O)[C@@H]2CCCN2C(=O)OCc2ccccc2)C(=O)Nc2ccc3nncn3c2)cc1 [Compound 48],–,–
–,≥ 10 µM,COc1ccc([C@H](NC(=O)[C@@H]2CCCN2C(=O)OCc2ccccc2)C(=O)Nc2cccnc2)cc1 [Compound 49],–,–
–,≥ 10 µM,"COc1ccc(NC(=O)[C@H](NC(=O)[C@@H]2CCCN2C(=O)OCc2ccccc2)c2ccc(OC)cc2)cc1 [Compound 50, benzyl-(S)-2-(((R)-1-(4-methoxyphenyl)-2-((4-methoxyphenyl)amino)-2-oxoethyl)carbamoyl)-pyrrolidine-1-carboxylate]",–,"inhibitory effect in the NO release assay ([1]; FIG. 9): not; IC50 ([1]; 0.002 to 20 μM, FIG. 9, read-out: IC50, LPS induced NO production (stereoisomers)): 40 µM"
